Laboratory results as given in PubChem BioAssay AID624274 (Broad Institute, 2012).

Target: Protein disulfide-isomerase (Homo sapiens) (UniProt P07237)
Test: inhibition of PDI-mediated insulin reduction – biochemical, turbidity, absorbance, cherry-picked samples, set 2, dose response (AID 624274)
Details: absorbance 650 nm

Chain of Protein disulfide-isomerase (Homo sapiens) (P07237 whole entry, looked up): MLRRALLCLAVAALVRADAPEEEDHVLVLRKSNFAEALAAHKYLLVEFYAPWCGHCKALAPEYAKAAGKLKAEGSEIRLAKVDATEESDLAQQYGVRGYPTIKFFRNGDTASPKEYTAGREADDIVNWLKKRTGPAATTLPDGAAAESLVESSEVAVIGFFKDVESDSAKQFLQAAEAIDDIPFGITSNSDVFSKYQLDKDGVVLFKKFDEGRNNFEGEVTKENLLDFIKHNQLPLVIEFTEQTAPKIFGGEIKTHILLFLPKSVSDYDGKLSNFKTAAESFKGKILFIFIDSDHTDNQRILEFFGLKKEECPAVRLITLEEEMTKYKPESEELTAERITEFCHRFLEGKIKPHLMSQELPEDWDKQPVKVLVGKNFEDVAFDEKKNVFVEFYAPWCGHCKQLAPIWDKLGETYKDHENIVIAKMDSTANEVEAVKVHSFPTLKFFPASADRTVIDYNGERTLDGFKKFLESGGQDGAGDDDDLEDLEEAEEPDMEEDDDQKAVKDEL

Compound	AC50
C[C@@H]1O[C@@H](O[C@@H]2C(=O)c3c(O)cc(O)cc3O[C@H]2c2ccc(O)c(O)c2)[C@H](O)[C@H](O)[C@H]1O	10.2 µM
CC(=O)OC[C@H]1O[C@@H](Oc2cc(O)cc3oc(-c4ccc(O)cc4)cc(=O)c23)[C@H](O[C@@H]2O[C@@H](C)[C@H](O)[C@@H](O)[C@H]2O)[C@@H](O)[C@@H]1O	19.5 µM
CCN1C[C@]2(COC(=O)c3ccccc3N)CC[C@H](OC)C34[C@@H]5C[C@H]6[C@H](OC)[C@@H]5[C@](O)(C[C@@H]6OC)[C@@](O)([C@H]13)[C@@H](OC)[C@@H]42	19.5 µM
C[C@@H]1O[C@@H](Oc2c(-c3cc(O)c(O)c(O)c3)oc3cc(O)cc(O)c3c2=O)[C@H](O)[C@H](O)[C@H]1O	9.8 µM
C[C@@H]1CN([C@H](C)CO)C(=O)c2cccc(NS(C)(=O)=O)c2O[C@H]1CN(C)Cc1ccc(Oc2ccccc2)cc1	18.8 µM
CCN1C(=O)C2C(c3ccccc3F)NC(Cc3ccc(O)cc3)(C(=O)OC)C2C1=O (centres undefined)	10.2 µM
Cc1noc(C)c1S(=O)(=O)Nc1ccc2c(c1)CC(=O)N([C@H](C)CO)C[C@H](C)[C@H](CN(C)S(=O)(=O)c1ccccc1)O2	19.5 µM
Cc1noc(C)c1S(=O)(=O)Nc1ccc2c(c1)CC(=O)N([C@@H](C)CO)C[C@H](C)[C@H](CN(C)S(=O)(=O)c1ccc(F)cc1)O2	19.5 µM
Cc1n[nH]c(=O)c2c(NC(=O)CSc3nnnn3-c3ccc(O)cc3)oc(C)c12	19.5 µM
C[C@H](CO)N1C[C@H](C)[C@@H](CN(C)Cc2ccc(Oc3ccccc3)cc2)Oc2c(NS(C)(=O)=O)cccc2C1=O	19.5 µM
O=C(c1ccco1)N1CCN(Cc2cc(=O)oc3cc(O)ccc23)CC1	19.5 µM
C[C@H]1CN([C@@H](C)CO)C(=O)c2cccc(NS(C)(=O)=O)c2O[C@@H]1CN(C)Cc1ccc(Oc2ccccc2)cc1	19.5 µM
Cc1c(O)ccc2c(CC(=O)N[C@@H](Cc3c[nH]c4ccccc34)C(=O)O)cc(=O)oc12	6.76 µM
COc1cccc(NS(=O)(=O)c2ccc3c(c2)C2C=CCC2C(c2ccc(C(=O)O)cc2)N3)c1 (centres undefined)	15.8 µM
CC(C)(C)OC(=O)N[C@@H](Cc1c[nH]c2ccccc12)c1nnc(SCC(N)=O)o1	19.5 µM
COc1ccc2c(CC(=O)OCC(=O)N(C)c3c(N)n(Cc4ccccc4)c(=O)[nH]c3=O)coc2c1	5.45 µM
COc1cc(-c2oc3cc(O)cc(O)c3c(=O)c2O[C@@H]2O[C@H](COC3O[C@@H](C)[C@H](O)[C@@H](O)[C@H]3O)[C@@H](O)[C@H](O)[C@H]2O)ccc1O (some centres undefined)	7.96 µM
C[C@@H]1O[C@@H](OC[C@H]2O[C@@H](Oc3c(-c4ccc(O)c(O)c4)oc4cc(O)cc(O)c4c3=O)[C@H](O)[C@@H](O)[C@@H]2O)[C@H](O)[C@H](O)[C@H]1O	7.62 µM
O=C(CCC1CCCCC1)NCCN1C2=NC[C@H](Cc3ccc(O)cc3)N2C[C@H]1Cc1ccc(O)cc1	19.5 µM
O=C1NC[C@H](Cc2ccc(O)cc2)N(CC2CCCCC2)C1=O	19.5 µM
Cc1ccc(S(=O)(=O)CCC(=O)c2ccc(O)cc2O)cc1	15.6 µM
C[C@H](CO)N1C[C@H](C)[C@@H](CN(C)S(=O)(=O)c2ccccc2)Oc2ccc(NC(=O)Cc3cn(C)c4ccccc34)cc2C1=O	0.125 µM
CCOC(=O)C1(CCOc2ccccc2)CCN(Cc2cc(OC)c(O)cc2Cl)CC1	6.03 µM
COc1ccc(N2CCN(CC(=O)c3ccc(O)c(C)c3O)CC2)cc1	19.5 µM
C[C@H]1CN([C@@H](C)CO)C(=O)c2cc(NC(=O)Cc3cn(C)c4ccccc34)ccc2O[C@H]1CN(C)S(=O)(=O)c1ccc(F)cc1	19.5 µM

Compound	AC50
COc1ccc(C2c3ccc(O)cc3Oc3ncn(CCN4CCOCC4)c(=N)c32)cc1OC (centres undefined)	15.5 µM
C[C@]12CC[C@@H]3c4ccc(O[C@@H]5O[C@H](C(=O)O)[C@@H](O)[C@H](O)[C@H]5O)cc4CC[C@H]3[C@@H]1C[C@@H](O)[C@@H]2O	15.7 µM
COc1ccc(/C=C2\CN(Cc3ccccc3)C/C(=C\c3ccc(OC)c(O)c3)C2=O)cc1O	2.98 µM
C[C@@H]1O[C@@H](OC[C@@H]2O[C@H](Oc3c(-c4ccc(O)cc4)oc4cc(O)cc(O)c4c3=O)[C@@H](O)[C@H](O)[C@H]2O)[C@H](O)[C@H](O)[C@H]1O	3.51 µM
Cc1noc(C)c1S(=O)(=O)Nc1ccc2c(c1)CC(=O)N([C@H](C)CO)C[C@H](C)[C@@H](CN(C)S(=O)(=O)c1ccc(F)cc1)O2	19.5 µM
C[C@H](CO)N1C[C@H](C)[C@H](CN(C)S(=O)(=O)c2ccc(F)cc2)Oc2ccc(NC(=O)Cc3cn(C)c4ccccc34)cc2C1=O	19.5 µM
COC1/C=C/C=C(\C)Cc2cc(O)c(Cl)c(c2)N(C)C(=O)CC(OC(=O)C(C)C)C2(C)OC2C(C)C2CC1(O)NC(=O)O2 (centres undefined)	9.59 µM
O=c1c(O[C@H]2O[C@@H](CO)[C@H](O)[C@@H](O)[C@@H]2O)c(-c2ccc(O)cc2)oc2cc(O)cc(O)c12	0.0155 µM
CCSc1nnc([C@H](Cc2c[nH]c3ccccc23)NC(=O)OC(C)(C)C)o1	19.5 µM
O=c1c(OC2OC(CO)C(O)C(O)C2O)c(-c2ccc(O)c(O)c2)oc2cc(O)cc(O)c12 (centres undefined)	8.92 µM
C[C@H](CO)N1C[C@H](C)[C@@H](CN(C)S(=O)(=O)c2ccc(F)cc2)Oc2ccc(NC(=O)Cc3cn(C)c4ccccc34)cc2C1=O	19.5 µM
O=C(O)C1C(c2ccccc2)C(C(=O)Oc2ccc(O)cc2)C1c1ccccc1 (centres undefined)	14.7 µM
CCN1CC2(COC(=O)c3ccccc3N)CCC(OC)C34C5CC6C(OC)CC(O)(C5C6OC)C(O)(C(OC)C23)C14 (centres undefined)	19.5 µM
O=C1C[C@@H](c2ccc(O[C@@H]3O[C@H](CO)[C@@H](O)[C@H](O)[C@H]3O)cc2)Oc2cc(O)ccc21	15.6 µM
CC[C@]12c3[nH]c4cc(-c5ccco5)ccc4c3CCN1C(=O)[C@@H](CC(=O)NCc1ccc(OC)c(OC)c1)C[C@@H]2C(=O)N1CCN(C(=O)c2ccco2)CC1	4.25 µM
CCOC(=O)c1c(CN2CCN(CCO)CC2)n(-c2ccccc2)c2cc(Br)c(O)cc12	0.61 µM
CCOC(=O)C1(CCOc2ccccc2)CCN(Cc2ccc(O)c(Cl)c2)CC1	0.599 µM
Cc1c(-n2cc(C(=O)c3ccccc3O)cc(C#N)c2=O)c(=O)n(-c2ccccc2)n1C	5.89 µM
CCOc1cc(N2CCOCC2)c(OCC)cc1NC(=O)COC(=O)[C@H](Cc1c[nH]c2ccccc12)NC(C)=O	19.5 µM
CCc1cc(OCCCCNCc2ccccc2)ccc1Cl	10.6 µM
Cn1cnnc1Sc1ccc(/C=C/C(=O)c2ccc(O)cc2)cc1[N+](=O)[O-]	0.422 µM
C[C@@H]1O[C@@H](O[C@H]2[C@H](O)[C@@H](O)[C@H](Oc3c(-c4ccc(O)cc4)oc4cc(O)cc(O)c4c3=O)O[C@@H]2CO)[C@H](O)[C@H](O)[C@H]1O	6.92 µM
C[C@H](CO)N1C[C@H](C)[C@H](CN(C)Cc2ccccc2)Oc2ccc(NC(=O)Nc3ccccc3)cc2CC1=O	19.5 µM
Cc1cc(O)cc2c1C1CCC3(C)C(=O)CCC3C1C=C2 (centres undefined)	19.5 µM
